From US4053466A, “(E)-2-[p-(β-substituted-vinyl)phenyl]alkanoic acids” (Kohjin Co., Ltd., priority 1974, dated 1977)

What was measured:
[1] = Farmaco. Edizione Scientifica, 11, 167 (1956); cited from earlier work
[2] = test system: rabbit platelet-rich plasma; test: inhibition of collagen-induced platelet aggregation; format: cell-based; conditions: 10^-4 M, 0.02N NaOH, 3 minute incubation
Method: The activity was evaluated after a 3 minute incubation of a mixture of the platelet aggregation inhibitor and rabbit platelet-rich plasma. […] Accordingly,the relative potency of inhibition of the test compound to aspirin (RASP) at the same concentration was chosen as a direct measure of inhibition potency.

[3] = test system: carrageenin-induced hind paw edema; test: anti-inflammatory activity, carrageenin-induced hind paw edema; format: in vivo, rat (male Wistar); conditions: for number of positive rats: inhibition of 25% or more vs control at 3 hours; for ED50: Rattus norvegicus, po, carrageenin edema, positive = inhibition of 25% or more at 3 hours
Method: The anti-inflammatory activity of the compounds against carrageenin-inducededema was determined according to procedure described in C. A. Winter et al., Proc. Soc. Exp. Biol. Med., 111, 544 (1962). Male Wistar rats, each weighing 100 to 120 g were used. Hind paw edema was induced by sub-cutaneous injection of 0.1 ml of 1% carrageenin solution into the left foot pad of each rat. Hind paw volume was measured before and after challenge of carrageenin by immersion of the hind paw down to the lateral malleolus into a glass cylinder containing water. Each dose of the test compound was orally administered one hour before challenge of carrageenin.
ED50 -value was calculated from the number of positive animals showing an inhibitory activity of 25% or more than the matched control group at 3 hours after carrageenin challenge.

[4] = test system: phenylquinone-induced writhing; test: analgesic activity, Phenylquinone-Writhing Syndrome method; format: in vivo, mouse (ddN strain); conditions: for number of positive mice: fewer writhings than half of control; for ED50: Mus musculus, po, phenylquinone writhing, positive = fewer writhings than half of control
Method: Analgesic activity was determined according to the Phenylquinone-Writhing Syndrome method. ddN strain mice, each weighing about 18 to 22 g were used. Chemical pain was induced by an intraperitoneal injection of 0.1 ml/10 g body weight of 0.03% phenylquinone in 5% aqueous ethanol into the mice. The number of writhings was measured for 15 minutes from 5 minutes after challenge of phenylquinone. Each dose of the drug was given 30 minutes before challenge of phenylquinone.
Ed50 -value was calculated from the number of positive animals showing fewer writhings than half of the matched control group.

Question: With `O=C(O)Cc1ccc(C=Cc2ccccc2)cc1` [4-stilbene-acetic acid] as the compound, how does the anti-cholesterinemic activity [1] read?
Answer: anti-cholesterinemic activity

Question: For `O=C(O)Cc1ccc(/C=C/c2cccs2)cc1` [Example 4, (E)-p-(β-2-Thienylvinyl)phenylacetic Acid], which “RASP (relative potency of inhibition of the test compound to aspirin)” value [2] is on record?
Answer: 1.0

Question: For `CC(C)Cc1ccc(C(C)C(=O)O)cc1` (stereo not shown) [Ibuprofen, 2-(p-isobutylphenyl)propionic acid, reference compound], which “Hind Paw Swelling, Mean ± S.E.” value ([3]; 10 mg/kg p.o., 2 hours) is on record?
Answer: 57.4 ± 3.9%

Question: And the “Percent Inhibition of hind paw swelling” value ([3]; 10 mg/kg p.o., 2 hours)?
Answer: 13.6%

Question: And the “Hind Paw Swelling, Mean ± S.E.” value ([3]; 10 mg/kg p.o., 3 hours)?
Answer: 60.8 ± 4.7%

Question: And the “Percent Inhibition of hind paw swelling” value ([3]; 10 mg/kg p.o., 3 hours)?
Answer: 15.5%

Question: And the “number of positive rats” value ([3]; 10 mg/kg p.o.)?
Answer: 1

Question: And the “Hind Paw Swelling, Mean ± S.E.” value ([3]; 20 mg/kg p.o., 2 hours)?
Answer: 52.6 ± 3.4%

Question: And the “Percent Inhibition of hind paw swelling” value ([3]; 20 mg/kg p.o., 2 hours)?
Answer: 20.9%

Question: And the “Hind Paw Swelling, Mean ± S.E.” value ([3]; 20 mg/kg p.o., 3 hours)?
Answer: 56.2 ± 2.7%

Question: What about the “Percent Inhibition of hind paw swelling” value ([3]; 20 mg/kg p.o., 3 hours) of the same compound?
Answer: 21.9%

Question: And the “number of positive rats” value ([3]; 20 mg/kg p.o.)?
Answer: 4

Question: What about the “Hind Paw Swelling, Mean ± S.E.” value ([3]; 40 mg/kg p.o., 2 hours) of the same compound?
Answer: 47.5 ± 4.0%

Question: And the “Percent Inhibition of hind paw swelling” value ([3]; 40 mg/kg p.o., 2 hours)?
Answer: 28.6%

Question: What about the “Hind Paw Swelling, Mean ± S.E.” value ([3]; 40 mg/kg p.o., 3 hours) of the same compound?
Answer: 51.2 ± 4.0%

Question: What about the “Percent Inhibition of hind paw swelling” value ([3]; 40 mg/kg p.o., 3 hours) of the same compound?
Answer: 28.9%

Question: And the “number of positive rats” value ([3]; 40 mg/kg p.o.)?
Answer: 7

Question: What about the “Hind Paw Swelling, Mean ± S.E.” value ([3]; 80 mg/kg p.o., 2 hours) of the same compound?
Answer: 41.8 ± 2.3%

Question: And the “Percent Inhibition of hind paw swelling” value ([3]; 80 mg/kg p.o., 2 hours)?
Answer: 37.2%

Question: And the “Hind Paw Swelling, Mean ± S.E.” value ([3]; 80 mg/kg p.o., 3 hours)?
Answer: 43.9 ± 2.4%

Question: And the “Percent Inhibition of hind paw swelling” value ([3]; 80 mg/kg p.o., 3 hours)?
Answer: 38.9%

Question: And the “number of positive rats” value ([3]; 80 mg/kg p.o.)?
Answer: 9

Question: And the ED50 [3]?
Answer: 24.3 mg/kg

Question: What about the “Inhibition in (%) of writhing” value ([4]; 25 mg/kg p.o.) of the same compound?
Answer: 25.5%

Question: What about the “Number of Writhings/15 min., Mean ± S.E.” value ([4]; 25 mg/kg p.o.) of the same compound?
Answer: 27.4 ± 3.3

Question: And the “number of positive mice” value ([4]; 25 mg/kg p.o.)?
Answer: 2

Question: What about the “Inhibition in (%) of writhing” value ([4]; 50 mg/kg p.o.) of the same compound?
Answer: 45.7%

Question: And the “Number of Writhings/15 min., Mean ± S.E.” value ([4]; 50 mg/kg p.o.)?
Answer: 20.0 ± 1.5

Question: And the “number of positive mice” value ([4]; 50 mg/kg p.o.)?
Answer: 4

Question: And the “Inhibition in (%) of writhing” value ([4]; 100 mg/kg p.o.)?
Answer: 64.4%

Question: And the “Number of Writhings/15 min., Mean ± S.E.” value ([4]; 100 mg/kg p.o.)?
Answer: 13.1 ± 1.9

Question: And the “number of positive mice” value ([4]; 100 mg/kg p.o.)?
Answer: 8

Question: What about the “Inhibition in (%) of writhing” value ([4]; 200 mg/kg p.o.) of the same compound?
Answer: 76.4%

Question: What about the “Number of Writhings/15 min., Mean ± S.E.” value ([4]; 200 mg/kg p.o.) of the same compound?
Answer: 8.7 ± 1.6

Question: What about the “number of positive mice” value ([4]; 200 mg/kg p.o.) of the same compound?
Answer: 10

Question: What about the “Inhibition in (%) of writhing” value ([4]; 400 mg/kg p.o.) of the same compound?
Answer: 94.8%

Question: And the “Number of Writhings/15 min., Mean ± S.E.” value ([4]; 400 mg/kg p.o.)?
Answer: 1.9 ± 0.8

Question: And the “number of positive mice” value ([4]; 400 mg/kg p.o.)?
Answer: 10

Question: What about the ED50 [4] of the same compound?
Answer: 50 mg/kg

Question: And the “RASP (relative potency of inhibition of the test compound to aspirin)” value [2]?
Answer: 0.6

Question: What does the source list for `CC(C(=O)O)c1ccc(/C=C/c2cccs2)cc1` (stereo not drawn) [XG-28, (E)-2-[p-(β-2-Thienylvinyl)phenyl]propionic Acid]?
Answer: Hind Paw Swelling, Mean ± S.E. ([3]; 1 mg/kg p.o., 2 hours): 73.7 ± 3.7%; Percent Inhibition of hind paw swelling ([3]; 1 mg/kg p.o., 2 hours): 2.4%; Hind Paw Swelling, Mean ± S.E. ([3]; 1 mg/kg p.o., 3 hours): 73.9 ± 2.6%; Percent Inhibition of hind paw swelling ([3]; 1 mg/kg p.o., 3 hours): -1.0%; number of positive rats ([3]; 1 mg/kg p.o.): 0; Hind Paw Swelling, Mean ± S.E. ([3]; 2.5 mg/kg p.o., 2 hours): 67.0 ± 2.6%; Percent Inhibition of hind paw swelling ([3]; 2.5 mg/kg p.o., 2 hours): 11.3%; Hind Paw Swelling, Mean ± S.E. ([3]; 2.5 mg/kg p.o., 3 hours): 70.12 ± 2.1%; Percent Inhibition of hind paw swelling ([3]; 2.5 mg/kg p.o., 3 hours): 4.0%; number of positive rats ([3]; 2.5 mg/kg p.o.): 0; Hind Paw Swelling, Mean ± S.E. ([3]; 5 mg/kg p.o., 2 hours): 62.9 ± 3.2%; Percent Inhibition of hind paw swelling ([3]; 5 mg/kg p.o., 2 hours): 16.8%; Hind Paw Swelling, Mean ± S.E. ([3]; 5 mg/kg p.o., 3 hours): 68.2 ± 2.7%; Percent Inhibition of hind paw swelling ([3]; 5 mg/kg p.o., 3 hours): 6.7%; number of positive rats ([3]; 5 mg/kg p.o.): 1; Hind Paw Swelling, Mean ± S.E. ([3]; 10 mg/kg p.o., 2 hours): 60.5 ± 2.3%; Percent Inhibition of hind paw swelling ([3]; 10 mg/kg p.o., 2 hours): 19.8%; Hind Paw Swelling, Mean ± S.E. ([3]; 10 mg/kg p.o., 3 hours): 65.7 ± 2.0%; Percent Inhibition of hind paw swelling ([3]; 10 mg/kg p.o., 3 hours): 10.1%; number of positive rats ([3]; 10 mg/kg p.o.): 0; Hind Paw Swelling, Mean ± S.E. ([3]; 20 mg/kg p.o., 2 hours): 50.7 ± 3.7%; Percent Inhibition of hind paw swelling ([3]; 20 mg/kg p.o., 2 hours): 33.6%; Hind Paw Swelling, Mean ± S.E. ([3]; 20 mg/kg p.o., 3 hours): 56.0 ± 4.1%; Percent Inhibition of hind paw swelling ([3]; 20 mg/kg p.o., 3 hours): 25.2%; number of positive rats ([3]; 20 mg/kg p.o.): 6; Hind Paw Swelling, Mean ± S.E. ([3]; 40 mg/kg p.o., 2 hours): 46.8 ± 2.6%; Percent Inhibition of hind paw swelling ([3]; 40 mg/kg p.o., 2 hours): 38.7%; Hind Paw Swelling, Mean ± S.E. ([3]; 40 mg/kg p.o., 3 hours): 48.6 ± 3.1%; Percent Inhibition of hind paw swelling ([3]; 40 mg/kg p.o., 3 hours): 35.1%; number of positive rats ([3]; 40 mg/kg p.o.): 8; Hind Paw Swelling, Mean ± S.E. ([3]; 80 mg/kg p.o., 2 hours): 49.8 ± 2.6%; Percent Inhibition of hind paw swelling ([3]; 80 mg/kg p.o., 2 hours): 31.3%; Hind Paw Swelling, Mean ± S.E. ([3]; 80 mg/kg p.o., 3 hours): 49.3± 2.8%; Percent Inhibition of hind paw swelling ([3]; 80 mg/kg p.o., 3 hours): 30.9%; number of positive rats ([3]; 80 mg/kg p.o.): 7; ED50 [3]: 23.3 mg/kg; Inhibition in (%) of writhing ([4]; 0.5 mg/kg p.o.): 13.5%; Number of Writhings/15 min., Mean ± S.E. ([4]; 0.5 mg/kg p.o.): 16.8 ± 2.1; number of positive mice ([4]; 0.5 mg/kg p.o.): 1; Inhibition in (%) of writhing ([4]; 5 mg/kg p.o.): 25.8%; Number of Writhings/15 min., Mean ± S.E. ([4]; 5 mg/kg p.o.): 14.4 ± 6.0; number of positive mice ([4]; 5 mg/kg p.o.): 2; Inhibition in (%) of writhing ([4]; 10 mg/kg p.o.): 29.4%; Number of Writhings/15 min., Mean ± S.E. ([4]; 10 mg/kg p.o.): 13.7 ± 2.4; number of positive mice ([4]; 10 mg/kg p.o.): 2; Inhibition in (%) of writhing ([4]; 25 mg/kg p.o.): 71.1%; Number of Writhings/15 min., Mean ± S.E. ([4]; 25 mg/kg p.o.): 5.6 ± 1.8; number of positive mice ([4]; 25 mg/kg p.o.): 7; Inhibition in (%) of writhing ([4]; 50 mg/kg p.o.): 52.1%; Number of Writhings/15 min., Mean ± S.E. ([4]; 50 mg/kg p.o.): 9.3 ± 1.6; number of positive mice ([4]; 50 mg/kg p.o.): 4; Inhibition in (%) of writhing ([4]; 100 mg/kg p.o.): 63.9%; Number of Writhings/15 min., Mean ± S.E. ([4]; 100 mg/kg p.o.): 7.0 ± 2.0; number of positive mice ([4]; 100 mg/kg p.o.): 9; Inhibition in (%) of writhing ([4]; 200 mg/kg p.o.): 60.3%; Number of Writhings/15 min., Mean ± S.E. ([4]; 200 mg/kg p.o.): 7.7 ± 1.2; number of positive mice ([4]; 200 mg/kg p.o.): 5; ED50 [4]: 14.1 mg/kg; RASP (relative potency of inhibition of the test compound to aspirin) [2]: 1.6

Question: Which “RASP (relative potency of inhibition of the test compound to aspirin)” value [2] does the source give for `CC(C)Cc1ccc(CC(=O)O)cc1` [p-Isobutylphenylacetic acid, reference compound] here?
Answer: 0.5
